Measurements as given in patent publication US8349870B2 (priority 2008, dated 2013).
Where two headings read alike, the source gives them in different places.

Assays:
Format in all cases: in vivo
Plasmopara viticola = assay: Test A: grape downy mildew, spray after inoculation, visual disease rating (% disease control); details: 100 = 100% disease control, 0 = no control
Description: General protocol for preparing test suspensions for Test A-C: The test compounds were first dissolved in acetone in an amount equal to 3% of the final volume and then suspended at the desired concentration (in ppm) in acetone and purified water (50/50 mix by volume) containing 250 ppm of the surfactant Trem® 014 (polyhydric alcohol esters). The resulting test suspensions were then used in Tests A-C. Spraying a 200 ppm test suspension to the point of run-off on the test plants was equivalent to a rate of 500 g/ha.
Grape seedlings were inoculated with a spore suspension of Plasmopara viticola (the causal agent of grape downy mildew) and incubated in a saturated atmosphere at 20° C. for 24 h. After a short drying period, the test suspension was sprayed to the point of run-off on the grape seedlings, which were then moved to a growth chamber at 20° C. for 5 days, after which time the grape seedling were placed back into a saturated atmosphere at 20° C. for 24 h. Upon removal, visual disease ratings were made.
Results for Tests A-C are given in Table A. In the table, a rating of 100 indicates 100% disease control and a rating of 0 indicates no disease control (relative to the controls). A dash (-) indicates no test results, “*” indicates compound was tested at 40 ppm and “**” indicates compound was tested at 10 ppm.

Phytophthora infestans [1] = details: tomato late blight, sprayed the day before inoculation
Phytophthora infestans [2] = details: tomato late blight, sprayed 17 h after inoculation
[3] = Cmpd No. unmarked, rate not stated in table (b1197 mentions a 200 ppm test suspension)

| Molecule | Test A rating (% disease control) (Plasmopara viticola; "*" compound tested at 40 ppm) [%] | Test B rating (% disease control) (Phytophthora infestans [1]; "*" compound tested at 40 ppm) [%] | Test C rating (% disease control) (Phytophthora infestans [2]; "*" compound tested at 40 ppm) [%] | Test A rating (% disease control) (Plasmopara viticola; [3]) [%] | Test B rating (% disease control) (Phytophthora infestans [1]; [3]) [%] | Test C rating (% disease control) (Phytophthora infestans [2]; [3]) [%] | also measured |
| --- | --- | --- | --- | --- | --- | --- | --- |
| 4-[4-(4,5-dihydro-5-phenyl-3-isoxazoly)-2-thiazolyl]-N-pentyl-1-piperidinecarboxamide [Example 4] | 86 | 100 | 76 | – | – | – | – |
| 4-[4-(4,5-dihydro-5-phenyl-3-isoxazolyl)-2-thiazolyl]-N-2-propen-1-yl]-1-piperidinecarbothioamide [Example 5] | 83 | 99 | 73 | – | – | – | – |
| 5-chloro-1-[4-[4-[4,5-dihydro-5-(2-fluorophenyl)-3-isoxazolyl]-2-thiazolyl]-1-piperidinyl-1-pentanone [Example 7] | – | – | – | 98 | 100 | 71 | – |
| O=C(C(O)Cc1ccccc1)N1CCC(c2nc(C3=NOC(c4c(F)cccc4F)C3)cs2)CC1 (mixture of isomers) [compound 50] | 0 | 87 | 0 | – | – | – | – |
| CC(C)C(O)C(=O)N1CCC(c2nc(C3=NOC(c4c(F)cccc4F)C3)cs2)CC1 (mixture of isomers) [compound 54] | – | 100 | 99 | – | – | – | – |
| CC(C)C(O)C(=O)N1CCC(c2nc(C3=NOC(c4c(F)cccc4F)C3)cs2)CC1 (mixture of isomers) [compound 55] | – | – | – | – | – | – | Test A rating (% disease control) (Plasmopara viticola; "**" compound tested at 10 ppm): 10%; Test B rating (% disease control) (Phytophthora infestans [1]; "**" compound tested at 10 ppm): 100%; Test C rating (% disease control) (Phytophthora infestans [2]; "**" compound tested at 10 ppm): 99% |
| CC(C)CC(O)C(=O)N1CCC(c2nc(C3=NOC(c4c(F)cccc4F)C3)cs2)CC1 (mixture of isomers) [compound 56] | 98 | 84 | 50 | – | – | – | – |
| CSC(=Nc1cc(C)ccc1C)N1CCC(c2nc(C3=NOC(c4ccccc4)C3)cs2)CC1 (stereo not drawn) [Example 1, methyl 4-[4-(4,5-dihydro-5-phenyl-3-isoxazolyl)-2-thiazolyl]-N-(2,5-dimethylphenyl)-1-piperidinecarboximidothioate] | 96 | 97 | 53 | – | – | – | – |
| Cc1ccc(C)c(N=CN2CCC(c3nc(C4=NOC(c5ccccc5)C4)cs3)CC2)c1 (stereo not drawn) [Example 2, N-[[4-[4-(4,5-dihydro-5-phenyl-3-isoxazolyl)-2-thiazolyl]-1-piperidinyl]methylene]-2,5-dimethylbenzenamine] | – | – | – | 17 | 88 | 0 | – |
| CC(CC(=O)N1CCC(c2nc(C3=NOC(c4ccccc4F)C3)cs2)CC1)C(F)(F)F (stereo not drawn) [Example 6, 1-[4-[4-[4,5-dihydro-5-(2-fluorophenyl)-3-isoxazolyl]-2-thiazolyl]-1-piperidinyl]-4,4,4-trifluoro-3-methyl-1-butanone] | – | – | – | 0 | 33 | 0 | – |
| C#CCCC(=O)N1CCC(c2nc(C3=NOC(c4ccccc4F)C3)cs2)CC1 (stereo not drawn) [Example 8, 1-[4-[4-[4,5-dihydro-5-(2-fluorophenyl)-3-isoxazolyl]-2-thiazolyl]-1-piperidinyl]-4-pentyn-1-one] | – | – | – | 46 | 40 | 0 | – |
| CN(C)C(=O)N1CCC(c2nc(C3=NOC(c4ccccc4)C3)cs2)CC1 (stereo not drawn) [compound 11] | – | – | – | 0 | 0 | 0 | – |
| CCN(CC)C(=O)N1CCC(c2nc(C3=NOC(c4ccccc4)C3)cs2)CC1 (stereo not drawn) [compound 12] | – | – | – | 8 | 40 | 0 | – |
| CCNC(=O)N1CCC(c2nc(C3=NOC(c4ccccc4)C3)cs2)CC1 (stereo not drawn) [compound 13] | – | – | – | 57 | 99 | 0 | – |
| CCCNC(=O)N1CCC(c2nc(C3=NOC(c4ccccc4)C3)cs2)CC1 (stereo not drawn) [compound 14] | – | – | – | 88 | 100 | 99 | – |
| CC(C)NC(=O)N1CCC(c2nc(C3=NOC(c4ccccc4)C3)cs2)CC1 (stereo not drawn) [compound 15] | – | – | – | 86 | 100 | 91 | – |
| CC(C)(C)NC(=O)N1CCC(c2nc(C3=NOC(c4ccccc4)C3)cs2)CC1 (stereo not drawn) [compound 16] | – | – | – | 86 | 100 | 95 | – |
| CCC(C)NC(=O)N1CCC(c2nc(C3=NOC(c4ccccc4)C3)cs2)CC1 (stereo not drawn) [compound 17] | 86 | 100 | 95 | – | – | – | – |

| Molecule | Test A rating (% disease control) (Plasmopara viticola; "*" compound tested at 40 ppm) [%] | Test B rating (% disease control) (Phytophthora infestans [1]; "*" compound tested at 40 ppm) [%] | Test C rating (% disease control) (Phytophthora infestans [2]; "*" compound tested at 40 ppm) [%] | Test A rating (% disease control) (Plasmopara viticola; [3]) [%] | Test B rating (% disease control) (Phytophthora infestans [1]; [3]) [%] | Test C rating (% disease control) (Phytophthora infestans [2]; [3]) [%] | also measured |
| --- | --- | --- | --- | --- | --- | --- | --- |
| CCOC(=O)CNC(=O)N1CCC(c2nc(C3=NOC(c4ccccc4)C3)cs2)CC1 (stereo not drawn) [compound 18] | 39 | 63 | 26 | – | – | – | – |
| O=C(NC1CCCC1)N1CCC(c2nc(C3=NOC(c4ccccc4)C3)cs2)CC1 (stereo not drawn) [compound 19] | 67 | 100 | 63 | – | – | – | – |
| O=C(NCC1CCCCC1)N1CCC(c2nc(C3=NOC(c4ccccc4)C3)cs2)CC1 (stereo not drawn) [compound 20] | 95 | 100 | 93 | – | – | – | – |
| Cc1ccc(C)c(N=CN2CCC(c3nc(C4=NOC(c5ccccc5)C4)cs3)CC2)c1.Cl (stereo not drawn) [compound 21] | – | – | – | 0 | 95 | 0 | – |
| Cc1ccc(C)c(N=C(N)N2CCC(c3nc(C4=NOC(c5ccccc5)C4)cs3)CC2)c1 (stereo not drawn) [compound 23] | – | – | – | – | – | – | Test A rating (% disease control) (Plasmopara viticola; "**" compound tested at 10 ppm): 79%; Test B rating (% disease control) (Phytophthora infestans [1]; "**" compound tested at 10 ppm): 100%; Test C rating (% disease control) (Phytophthora infestans [2]; "**" compound tested at 10 ppm): 33% |
| Cc1ccc(C)c(N=C(N(C)C)N2CCC(c3nc(C4=NOC(c5ccccc5)C4)cs3)CC2)c1 (stereo not drawn) [compound 24] | 79 | 97 | 39 | – | – | – | – |
| Cc1ccc(C)c(N=C(NO)N2CCC(c3nc(C4=NOC(c5c(F)cccc5F)C4)cs3)CC2)c1 (stereo not drawn) [compound 25] | 100 | 100 | 99 | – | – | – | – |
| CSC(=Nc1cc(C)ccc1C)N1CCC(c2nc(C3=NOC(c4c(F)cccc4F)C3)cs2)CC1.I (stereo not drawn) [compound 26] | 99 | 100 | 93 | – | – | – | – |
| CC(=O)NC(=Nc1cc(C)ccc1C)N1CCC(c2nc(C3=NOC(c4ccccc4)C3)cs2)CC1 (stereo not drawn) [compound 27] | 4 | 99 | 58 | – | – | – | – |
| CNC(=Nc1cc(C)ccc1C)N1CCC(c2nc(C3=NOC(c4ccccc4)C3)cs2)CC1 (stereo not drawn) [compound 28] | 43 | 95 | 0 | – | – | – | – |
| CCOC(=Nc1cc(C)ccc1C)N1CCC(c2nc(C3=NOC(c4ccccc4)C3)cs2)CC1 (stereo not drawn) [compound 29] | 92 | 99 | 80 | – | – | – | – |
| Cc1ccc(C)c(N=C(N2CCOCC2)N2CCC(c3nc(C4=NOC(c5ccccc5)C4)cs3)CC2)c1 (stereo not drawn) [compound 30] | 58 | 64 | 17 | – | – | – | – |
| Cc1ccc(C)c(N=C(N)N2CCC(c3nc(C4=NOC(c5c(F)cccc5F)C4)cs3)CC2)c1 (stereo not drawn) [compound 31] | 99 | 100 | 97 | – | – | – | – |
| O=C(C(O)C(F)(F)F)N1CCC(c2nc(C3=NOC(c4c(F)cccc4F)C3)cs2)CC1 (stereo not drawn) [compound 53] | – | 100 | 95 | – | – | – | – |
| CC(C)CC(O)C(=O)N1CCC(c2nc(C3=NOC(c4c(F)cccc4F)C3)cs2)CC1 (stereo not drawn) [compound 57] | – | 100 | 97 | – | – | – | – |
| CCCCC(O)C(=O)N1CCC(c2nc(C3=NOC(c4c(F)cccc4F)C3)cs2)CC1 (stereo not drawn) [compound 58] | – | 100 | 99 | – | – | – | – |
| CCCCCCC(O)C(=O)N1CCC(c2nc(C3=NOC(c4c(F)cccc4F)C3)cs2)CC1 (stereo not drawn) [compound 61] | – | 100 | 47 | – | – | – | – |
| CCC(=O)C(=O)N1CCC(c2nc(C3=NOC(c4c(F)cccc4F)C3)cs2)CC1 (stereo not drawn) [compound 66] | – | 100 | 99 | – | – | – | – |
